Source: ChEMBL document CHEMBL5543105, “Total synthesis and structural modification of the dibenzylbutane lignan LCA as a potent anti-inflammatory agent against LPS-induced acute lung injury” (Eur J Med Chem, 2024)
Activity calls are given as the source filed them. The calls are words filed in the database; no cut-off is given here.

Key:
RAW264.7 [1] = assay: Anti-inflammatory activity against mouse RAW264.7 cells assessed as inhibition of LPS-induced NO production at 20 uM incubated for 24 hrs; format: functional, cell-based
RAW264.7 [2] = assay: Cytotoxicity against mouse RAW264.7 cells upto 20 uM incubated for 24 hrs by CCK-8 assay; format: toxicity, cell-based; details: raw264.7, 24 h
Mus musculus [3] = assay: Anti-inflammatory activity against LPS-induced acute […] injury C57BL/6 mouse model assessed as reduction in lung edema at 20 mg/kg, ip administered for 1 hr and measured after 6 hrs by H and E staining based analysis; format: functional, organism-based; details: time 7.0 hrs
Mus musculus [4] = assay: Anti-inflammatory activity against LPS-induced acute […] injury C57BL/6 mouse model assessed as improvement in alveolar wall thickness at 20 mg/kg, ip administered for 1 hr and measured after 6 hrs by H and E staining based analysis; format: functional, organism-based; details: time 7.0 hrs
Mus musculus [5] = assay: Anti-inflammatory activity against LPS-induced acute […] injury C57BL/6 mouse model assessed as improvement in alveolar structure at 20 mg/kg, ip administered for 1 hr and measured after 6 hrs by H and E staining based analysis; format: functional, organism-based; details: time 7.0 hrs
Mus musculus [6] = assay: Anti-inflammatory activity against LPS-induced acute […] injury C57BL/6 mouse model assessed as reduction in wet weight to dry weight ratio in lung at 20 mg/kg, ip administered for 1 hr and measured after 6 hrs; format: functional, organism-based; details: time 7.0 hrs
Mus musculus [7] = assay: Anti-inflammatory activity against LPS-induced acute […] injury C57BL/6 mouse model assessed as reduction in congestion in lung at 20 mg/kg, ip administered for 1 hr and measured after 6 hrs by H and E staining based analysis; format: functional, organism-based; details: time 7.0 hrs
Mus musculus [8] = assay: Anti-inflammatory activity against LPS-induced acute […] injury C57BL/6 mouse model assessed as reduction in alveolar thickness in lung at 20 mg/kg, ip administered for 1 hr and measured after 6 hrs by H and E staining based analysis; format: functional, organism-based; details: time 7.0 hrs
Mus musculus [9] = assay: Anti-inflammatory activity against LPS-induced acute […] injury C57BL/6 mouse model assessed as reduction in inflammatory cell infiltration at 20 mg/kg, ip administered for 1 hr and measured after 6 hrs by H and E staining based analysis; format: functional, organism-based; details: time 7.0 hrs
Mus musculus [10] = assay: Anti-inflammatory activity against LPS-induced acute […] injury C57BL/6 mouse model assessed as improvement in lung edema at 20 mg/kg, ip administered for 1 hr and measured after 6 hrs by H and E staining based analysis; format: functional, organism-based; details: time 7.0 hrs
Mus musculus [11] = assay: Anti-inflammatory activity against LPS-induced acute […] injury C57BL/6 mouse model assessed as improvement in pulmonary hemorrhage at 20 mg/kg, ip administered for 1 hr and measured after 6 hrs by H and E staining based analysis; format: functional, organism-based; details: time 7.0 hrs
Mus musculus [12] = assay: Anti-inflammatory activity against LPS-induced acute […] injury C57BL/6 mouse model assessed as reduction in bleeding points in lung at 20 mg/kg, ip administered for 1 hr and measured after 6 hrs by H and E staining based analysis; format: functional, organism-based; details: time 7.0 hrs
Mus musculus [13] = assay: Anti-inflammatory activity against LPS-induced acute […] injury C57BL/6 mouse model assessed as improvement in destruction of lung structure at 20 mg/kg, ip administered for 1 hr and measured after 6 hrs by H and E staining based analysis; format: functional, organism-based; details: time 7.0 hrs

**Q.** `COc1cc(C[C@H](C(=O)N2CCN(c3ccccc3C)CC2)[C@@H](Cc2cc(OC)c(O)c(OC)c2)C(=O)N2CCN(c3ccccc3C)CC2)cc(OC)c1O` was tested. Which Activity (RAW264.7 [1]) did it give?
**A.** Active

**Q.** What about the Activity (RAW264.7 [2]) of the same molecule?
**A.** Non-Toxic

**Q.** `COc1cc(C[C@H](C(=O)N2CCN(c3ccc(Cl)cc3)CC2)[C@@H](Cc2cc(OC)c(O)c(OC)c2)C(=O)N2CCN(c3ccc(Cl)cc3)CC2)cc(OC)c1O` was tested. Which Activity (RAW264.7 [1]) did it give?
**A.** Active

**Q.** What about the Activity (RAW264.7 [2]) of the same molecule?
**A.** Non-Toxic

**Q.** Which Activity (RAW264.7 [2]) does the source give for `COc1cc(C[C@H](C(=O)N2CCCCC2)[C@@H](Cc2cc(OC)c(O)c(OC)c2)C(=O)N2CCCCC2)cc(OC)c1O` here?
**A.** Non-Toxic

**Q.** How did the Activity (RAW264.7 [1]) turn out when `COc1cc(C[C@H](C(=O)N2CCN(C)CC2)[C@@H](Cc2cc(OC)c(O)c(OC)c2)C(=O)N2CCN(C)CC2)cc(OC)c1O` was run?
**A.** Active

**Q.** What about the Activity (RAW264.7 [2]) of the same molecule?
**A.** Non-Toxic

**Q.** With `COc1cc(C[C@H](C(=O)N2CCN(c3ccccc3)CC2)[C@@H](Cc2cc(OC)c(O)c(OC)c2)C(=O)N2CCN(c3ccccc3)CC2)cc(OC)c1O` as the molecule, how does the Activity (RAW264.7 [2]) read?
**A.** Non-Toxic

**Q.** How did the Activity (RAW264.7 [2]) turn out when `COc1cc(C[C@H](C(=O)N2CCN(c3cccc(Cl)c3Cl)CC2)[C@@H](Cc2cc(OC)c(O)c(OC)c2)C(=O)N2CCN(c3cccc(Cl)c3Cl)CC2)cc(OC)c1O` was run?
**A.** Non-Toxic

**Q.** For `COc1cc(C[C@H](C(=O)NC2CCC(OC)CC2)[C@@H](Cc2cc(OC)c(O)c(OC)c2)C(=O)NC2CCC(OC)CC2)cc(OC)c1O` (some centres not stated), which Activity (RAW264.7 [2]) is on record?
**A.** Non-Toxic

**Q.** Which Activity (RAW264.7 [2]) does the source give for `COc1ccccc1N1CCN(C(=O)[C@@H](Cc2cc(OC)c(O)c(OC)c2)[C@@H](Cc2cc(OC)c(O)c(OC)c2)C(=O)N2CCN(c3ccccc3OC)CC2)CC1` here?
**A.** Non-Toxic

**Q.** For `COc1cc(C[C@H](C(=O)N2CCN(c3ccccc3Cl)CC2)[C@@H](Cc2cc(OC)c(O)c(OC)c2)C(=O)N2CCN(c3ccccc3Cl)CC2)cc(OC)c1O`, which Activity (RAW264.7 [1]) is on record?
**A.** Active

**Q.** And the Activity (RAW264.7 [2])?
**A.** Non-Toxic

**Q.** Which Activity (RAW264.7 [2]) does the source give for `COc1cc(C[C@H](C(=O)NCC2CCCCC2)[C@@H](Cc2cc(OC)c(O)c(OC)c2)C(=O)NCC2CCCCC2)cc(OC)c1O` here?
**A.** Non-Toxic

**Q.** For `COc1cc(C[C@H](C(=O)N2CCN(c3ccccc3C(F)(F)F)CC2)[C@@H](Cc2cc(OC)c(O)c(OC)c2)C(=O)N2CCN(c3ccccc3C(F)(F)F)CC2)cc(OC)c1O`, which Activity (RAW264.7 [1]) is on record?
**A.** Active

**Q.** And the Activity (RAW264.7 [2])?
**A.** Non-Toxic

**Q.** What does the source list for `COc1cc(C[C@H](C(=O)N2CCOCC2)[C@@H](Cc2cc(OC)c(O)c(OC)c2)C(=O)N2CCOCC2)cc(OC)c1O`?
**A.** Activity (RAW264.7 [1]): Active; Activity (RAW264.7 [2]): Non-Toxic

**Q.** Which Activity (RAW264.7 [1]) does the source give for `COc1cc(C[C@H](C(=O)N2CCN(c3cccc(C(F)(F)F)c3)CC2)[C@@H](Cc2cc(OC)c(O)c(OC)c2)C(=O)N2CCN(c3cccc(C(F)(F)F)c3)CC2)cc(OC)c1O` here?
**A.** Active

**Q.** What about the Activity (RAW264.7 [2]) of the same molecule?
**A.** Non-Toxic

**Q.** `COc1cc(C[C@H](C(=O)NC2CC(OC)C2)[C@@H](Cc2cc(OC)c(O)c(OC)c2)C(=O)NC2CC(OC)C2)cc(OC)c1O` (some centres not stated) was tested. Which Activity (RAW264.7 [2]) did it give?
**A.** Non-Toxic

**Q.** How did the Activity (RAW264.7 [2]) turn out when `COc1cccc(N2CCN(C(=O)[C@@H](Cc3cc(OC)c(O)c(OC)c3)[C@@H](Cc3cc(OC)c(O)c(OC)c3)C(=O)N3CCN(c4cccc(OC)c4)CC3)CC2)c1` was run?
**A.** Non-Toxic

**Q.** For `CNC(=O)[C@@H](Cc1cc(OC)c(O)c(OC)c1)[C@@H](Cc1cc(OC)c(O)c(OC)c1)C(=O)NC`, which Activity (RAW264.7 [2]) is on record?
**A.** Non-Toxic

**Q.** Which results are given for `COc1cc(C[C@H](C(=O)N2CCN(c3cccc(Cl)c3)CC2)[C@@H](Cc2cc(OC)c(O)c(OC)c2)C(=O)N2CCN(c3cccc(Cl)c3)CC2)cc(OC)c1O`?
**A.** Activity (RAW264.7 [1]): Active; Activity (RAW264.7 [2]): Non-Toxic

**Q.** With `COc1cc(/C=C/C(=O)OC[C@H](Cc2cc(OC)c(O)c(OC)c2)[C@@H](COC(=O)/C=C/c2ccc(O)c(OC)c2)Cc2cc(OC)c(O)c(OC)c2)ccc1O` as the molecule, how does the Activity (Mus musculus [3]) read?
**A.** Active

**Q.** And the Activity (Mus musculus [4])?
**A.** Active

**Q.** What about the Activity (Mus musculus [5]) of the same molecule?
**A.** Active

**Q.** What about the Activity (Mus musculus [6]) of the same molecule?
**A.** Active

**Q.** And the Activity (Mus musculus [7])?
**A.** Active

**Q.** What about the Activity (Mus musculus [8]) of the same molecule?
**A.** Active

**Q.** What about the Activity (Mus musculus [9]) of the same molecule?
**A.** Active

**Q.** What about the Activity (Mus musculus [10]) of the same molecule?
**A.** Active

**Q.** What about the Activity (Mus musculus [11]) of the same molecule?
**A.** Active

**Q.** What about the Activity (Mus musculus [12]) of the same molecule?
**A.** Active

**Q.** And the Activity (Mus musculus [13])?
**A.** Active

**Q.** With `COc1cc(C[C@H](C(=O)N2CCN(c3ccc(C)cc3)CC2)[C@@H](Cc2cc(OC)c(O)c(OC)c2)C(=O)N2CCN(c3ccc(C)cc3)CC2)cc(OC)c1O` as the molecule, how does the Activity (RAW264.7 [2]) read?
**A.** Non-Toxic

**Q.** For `COc1cc(C[C@H](C(=O)N2CCN(c3cccc(C)c3)CC2)[C@@H](Cc2cc(OC)c(O)c(OC)c2)C(=O)N2CCN(c3cccc(C)c3)CC2)cc(OC)c1O`, which Activity (RAW264.7 [2]) is on record?
**A.** Non-Toxic

**Q.** For `COc1cc(C[C@H](C(=O)N2CCN(c3ccccc3Br)CC2)[C@@H](Cc2cc(OC)c(O)c(OC)c2)C(=O)N2CCN(c3ccccc3Br)CC2)cc(OC)c1O`, which Activity (RAW264.7 [2]) is on record?
**A.** Non-Toxic

**Q.** How did the Activity (RAW264.7 [2]) turn out when `COc1cc(C[C@H](C(=O)N2CCN(c3ccc(C(F)(F)F)cc3)CC2)[C@@H](Cc2cc(OC)c(O)c(OC)c2)C(=O)N2CCN(c3ccc(C(F)(F)F)cc3)CC2)cc(OC)c1O` was run?
**A.** Non-Toxic

**Q.** `COc1cc(C[C@H](C(=O)NC2CCCCC2)[C@@H](Cc2cc(OC)c(O)c(OC)c2)C(=O)NC2CCCCC2)cc(OC)c1O` was tested. Which Activity (RAW264.7 [2]) did it give?
**A.** Non-Toxic

**Q.** `CCCCCCNC(=O)[C@@H](Cc1cc(OC)c(O)c(OC)c1)[C@@H](Cc1cc(OC)c(O)c(OC)c1)C(=O)NCCCCCC` was tested. Which Activity (RAW264.7 [2]) did it give?
**A.** Non-Toxic

**Q.** For `COc1cc(C[C@H](C(=O)N2CCN(c3cccc(F)c3)CC2)[C@@H](Cc2cc(OC)c(O)c(OC)c2)C(=O)N2CCN(c3cccc(F)c3)CC2)cc(OC)c1O`, which Activity (RAW264.7 [2]) is on record?
**A.** Non-Toxic

**Q.** For `COc1cc(C[C@H](C(=O)N2CCN(c3ccc(F)cc3)CC2)[C@@H](Cc2cc(OC)c(O)c(OC)c2)C(=O)N2CCN(c3ccc(F)cc3)CC2)cc(OC)c1O`, which Activity (RAW264.7 [2]) is on record?
**A.** Non-Toxic

**Q.** `COc1ccc(N2CCN(C(=O)[C@@H](Cc3cc(OC)c(O)c(OC)c3)[C@@H](Cc3cc(OC)c(O)c(OC)c3)C(=O)N3CCN(c4ccc(OC)cc4)CC3)CC2)cc1` was tested. Which Activity (RAW264.7 [2]) did it give?
**A.** Non-Toxic

**Q.** Which Activity (RAW264.7 [2]) does the source give for `COc1cc(C[C@H](C(=O)N2CCN(c3ccccc3F)CC2)[C@@H](Cc2cc(OC)c(O)c(OC)c2)C(=O)N2CCN(c3ccccc3F)CC2)cc(OC)c1O` here?
**A.** Non-Toxic

**Q.** With `COc1cc(C[C@H](C(=O)NC2CC(F)(F)C2)[C@@H](Cc2cc(OC)c(O)c(OC)c2)C(=O)NC2CC(F)(F)C2)cc(OC)c1O` as the molecule, how does the Activity (RAW264.7 [2]) read?
**A.** Non-Toxic

**Q.** Which Activity (RAW264.7 [2]) does the source give for `COc1cc(C[C@H](C(=O)NCC2CCC2)[C@@H](Cc2cc(OC)c(O)c(OC)c2)C(=O)NCC2CCC2)cc(OC)c1O` here?
**A.** Non-Toxic

**Q.** For `COc1cc(C[C@H](C(=O)NC2CC2)[C@@H](Cc2cc(OC)c(O)c(OC)c2)C(=O)NC2CC2)cc(OC)c1O`, which Activity (RAW264.7 [2]) is on record?
**A.** Non-Toxic

**Q.** `COc1cc(C[C@H](C(=O)NC2CCC2)[C@@H](Cc2cc(OC)c(O)c(OC)c2)C(=O)NC2CCC2)cc(OC)c1O` was tested. Which Activity (RAW264.7 [2]) did it give?
**A.** Non-Toxic

**Q.** Which results are given for `COc1cc(C[C@H](C(=O)N2CCN(c3ccc(F)cc3F)CC2)[C@@H](Cc2cc(OC)c(O)c(OC)c2)C(=O)N2CCN(c3ccc(F)cc3F)CC2)cc(OC)c1O`?
**A.** Activity (RAW264.7 [1]): Active; Activity (RAW264.7 [2]): Non-Toxic
